# Several values for one entry are separate records, joined by “and”; a condition that tells them apart may be missing. Equal values may be shown once.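 Step 1: Grow cells in 96-well plates. Step 2: Expose to compound for 48 hours at 5 concentrations. Step 3: Interpolate endpoints linearly; if unreached, use highest concentration. GI50: concentration for 50% inhibition of growth. TGI is the concentration that stops growth completely.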 Where a SMILES comes first, the peptide text is derived from it. The star is where a group is joined. Trt = c1ccc(C(c2ccccc2)(c2ccccc2)*)cc1; Cbz = O=C(OCc1ccccc1)*
# Columns and labels:
# Experiment in all cases: inhibition of tumour cell growth, NCI panel, 48 h
# 786-0 renal = system: 786-0 renal
# BT-549 breast = system: BT-549 breast
# COLO 205 colon = system: COLO 205 colon
# RXF 393 renal = system: RXF 393 renal
# SF-268 CNS = system: SF-268 CNS
# SF-539 CNS = system: SF-539 CNS
# SN12C renal = system: SN12C renal
# SNB-75 CNS = system: SNB-75 CNS
# T-47D breast = system: T-47D breast
# U251 CNS = system: U251 CNS
Compound,GI50 (786-0 renal),TGI (786-0 renal),GI50 (BT-549 breast) [µM],TGI (BT-549 breast) [µM],GI50 (COLO 205 colon) [µM],TGI (COLO 205 colon),GI50 (RXF 393 renal) [µM],TGI (RXF 393 renal) [µM],GI50 (SF-268 CNS) [µM],TGI (SF-268 CNS) [µM],GI50 (SF-539 CNS) [µM],TGI (SF-539 CNS) [µM],GI50 (SN12C renal) [µM],TGI (SN12C renal) [µM],GI50 (SNB-75 CNS) [µM],TGI (SNB-75 CNS) [µM],GI50 (T-47D breast) [µM],TGI (T-47D breast),GI50 (U251 CNS) [µM],TGI (U251 CNS) [µM]
NC(=O)c1ccc(N(C(N)=O)c2c(F)cccc2F)nc1-c1ccc(F)cc1F,> 100 µM,> 100 µM,> 100,> 100,> 100,> 100 µM,> 100,> 100,> 100,> 100,> 100,> 100,> 100,> 100,> 100,> 100,> 100,> 100 µM,> 100,> 100
Cc1ccc(S(=O)(=O)NC(CO)C(=O)O)cc1 (stereo not drawn),,> 100 µM,,> 100,,> 100 µM,,> 100,,> 100,,> 100,,> 100,,> 100,,> 100 µM,,> 100
H-QIYKKYRTWYRKAWKVLGKV-NH2,3.04 µM,16.8 µM,5.36,27.2,4.3,80.7 µM,4.55,27.4,3.99,30.5,2.21,4.98,3.56,15,6.06,22.5,2.06,5.2 µM,12,> 100
COc1cccc(NC2=C(Cl)C(=O)N(Cc3ccc(Cl)cc3)C2=O)c1,1.54 µM,8.39 µM,0.655,4.18,4.96,39.8 µM,0.788,6.26,3.02,13.9,1.73,5.7,2.61,12.9,3.22,> 100,10.9,> 100 µM,1.24,> 34.6
CC(N1CCOCC1)C(O)(c1ccccc1)c1ccccn1 (stereo not drawn),,> 100 µM,,> 100,,> 100 µM,,> 100,,> 100,,> 100,,> 100,,> 100,,> 100 µM,,> 100
CCN(CC)Cc1cc(Nc2c3ccccc3nc3cc(Cl)ccc23)ccc1O,1.21 µM,2.46 µM,1.95,3.48,1.05,2.3 µM,1.28,2.58,1.63,3.13,2.19,4.58,1.05,2.67,1.6,2.97,1.97,4 µM,1.39,2.89
CC(/C=N/N=C(N)N)=N\N=C(N)N,6.12 µM and 1.67 µM,> 83.6 µM and 19.7 µM,40.9,928,4.26,33.1 µM and 21.5 µM,> 45.6,734,23.1,92.4,21.8,103,,941,28.3,187,5.02,31 µM and 23.4 µM,47.7,403
O=C(CCCCCCCCC(=O)N/N=C\c1cc(Cl)ccc1O)N/N=C\c1cc(Cl)ccc1O,0.287 µM,15.5 µM,0.526,96.8,3.19,> 100 µM,0.208,7.78,0.223,> 100,0.339,> 46.8,0.427,> 100,15.6,> 65.9,1.48,> 100 µM,0.192,25.9
C=CC(C)(O)CC/C=C(\CO)C(=O)OC1C(C)OC(O[C@](C)(C=C)CC/C=C(\CO)C(=O)O[C@H]2C[C@@]3(C(=O)OC4OC(CO)C(O)C(O)C4OC4OC(C)C(OC5OC(CO)C(O)C5O)C(OC5OC(CO)C(O)C(O)C5O)C4O)C(CC2(C)C)C2=CCC4[C@@]5(C)CC[C@H](OC6OC(COC7OC(C)C(O)C(O)C7OC7OCC(O)C(O)C7O)C(O)C(O)C6NC(C)=O)C(C)(C)C5CC[C@@]4(C)[C@]2(C)C[C@H]3O)C(O)C1O (stereo partly drawn),0.155 µM,0.668 µM,5.04,10.6,0.168,0.927 µM,0.754,4.03,0.174,0.893,4.86,9.77,0.0798,0.343,0.154,0.894,0.155,0.739 µM,0.101,0.45
COc1cc(/C=N/NC(=O)c2ccccc2Nc2cccc(C(F)(F)F)c2)cc(OC)c1OC,3.22 µM,11.6 µM,2.3,9.23,2.72,9.87 µM,2.35,5.87,2.05,7.99,2.14,5.62,5.94,15.4,1.54,10.4,3.33,13.5 µM,2.28,6.03
O=C(/C=C/c1ccc([N+](=O)[O-])cc1)c1cccc(Nc2nc(Nc3ccccc3)nc(Nc3ccccc3)n2)c1,13 µM,43.1 µM,27,> 100,13,61.2 µM,5.99,30.1,17.6,> 100,12.7,35.5,26.8,> 100,4.52,94.8,9.75,> 100 µM,12,> 100
COc1ccc(C2=Nc3c/c(=C\c4c(O)[nH]c5cc(Cl)ccc45)ccc3=N2)cc1,7.85 µM,20.6 µM,3.65,18.3,7.19,21 µM,3.16,12.2,12.9,32.4,11.4,28,13.9,30,3.1,14.2,10.7,29.8 µM,2.08,5.64
O=C(O)CCc1nc(-c2ccccc2-n2cccc2)no1,,> 100 µM,,> 100,,> 100 µM,,> 100,,> 100,,> 100,,> 100,,> 100,,> 100 µM,,> 100
CN=C(N)N/N=C(\C)c1ccc2c(c1)Cc1ccccc1-2,1.86 µM,3.74 µM,10.2,27.9,1.66,3.02 µM,4.06,66.5,2.13,5.25,1.66,3.02,1.92,5.38,2,7.01,1.32,2.92 µM,,
O=C(C=C=Nc1ccccc1)C(=O)N=C=Cc1ccccc1,1.75 µM,3.9 µM,2.59,9.2,1.89,3.87 µM,,0.497,3.43,12.1,9.39,23,4.71,19.4,3.54,18.5,1.62,3.94 µM,5.27,17.3
COc1cc(Cn2c(-c3ccccc3)cc3c2-c2oncc2CC3)cc(OC)c1,0.601 µM,> 100 µM,0.9,> 100,0.256,0.653 µM,0.296,> 100,0.876,> 100,0.297,> 49,0.738,> 100,0.201,20.1,> 100,> 100 µM,0.427,> 100
COc1cc2c(cc1OCCCOc1ccc(-c3nc4ccc(N5CCN(C)CC5)cc4[nH]3)cc1)N=C[C@@H]1CCCN1C2=O,< 0.01 µM,0.524 µM,< 0.01,< 0.01,< 0.01,> 100 µM,< 0.01,< 0.01,< 0.01,,< 0.01,< 0.01,< 0.01,< 0.01,< 0.01,11.8,< 0.01,15 µM,< 0.01,5.07
COC(=O)/C(=N\Nc1nnc(C)n1N)C(C#N)c1ccccc1 (stereo not drawn),,> 55.1 µM,,> 100,,> 100 µM,,> 100,,> 100,,> 100,,> 66.7,,> 100,,> 100 µM,,> 100
CNC(c1ccncc1)C(NC)c1ccncc1 (stereo not drawn),,> 100 µM,,> 100,,> 100 µM,,> 100,,> 100,,,,> 100,,> 100,,> 100 µM,,> 100
COc1ccc(-c2nc(C(=O)c3ccccc3)n(CC(=O)c3ccc(Cl)cc3)c2-c2ccc(OC)cc2)cc1,> 100 µM,> 100 µM,85.6,> 100,> 100,> 100 µM,> 100,> 100,> 100,> 100,> 100,> 100,> 100,> 100,> 100,> 100,> 100,> 100 µM,> 100,> 100
O=S(=O)(O)SCCNCCCCCC1CCCCC1,,28 µM,,31.4,,30.3 µM,,38,,23.5,,19.6,,11.3,,16.3,,35.7 µM,,11.7
O=C(c1ccc2ccccc2c1)c1c(C(F)(F)F)n([O-])c2ccc(F)cc2[n+]1=O,1.57 µM,3.01 µM,1.75,3.22,0.188,0.425 µM,0.283,0.958,1.73,3.37,1.88,3.32,1.29,2.74,1.47,2.82,1.56,4.05 µM,1.47,2.81
COC(=O)C(CSC(c1ccccc1)(c1ccccc1)c1ccccc1)NC(=O)C(CC(N)=O)NC(=O)OCc1ccccc1 (stereo not drawn) (Cbz-Asn-Cys(Trt)-OMe; configuration not given here),3.44 µM,12.6 µM,14.8,35.7,1.64,3.4 µM,3.17,13.5,3.08,13.2,1.68,5.49,3.54,15,5.43,24.6,2.13,8.33 µM,5.87,18.5
CC(C(N)=O)N(C)C(=O)c1cnc2ccccc2c1 (stereo not drawn),,> 100 µM,,> 100,,> 100 µM,,> 100,,,,> 100,,> 100,,> 100,,> 100 µM,,> 100
CCCOC(=O)C1C2CCC(O2)C1C(=O)O (stereo not drawn),,> 100 µM,,> 100,,> 100 µM,,> 100,,> 100,,,,> 100,,> 100,,> 100 µM,,> 100
Cc1cc(Br)cc(C)c1NC(=O)C(=O)Nn1c(=S)[nH]c2ccccc2c1=O,,> 100 µM,,> 100,,,,> 100,,> 100,,> 100,,> 100,,> 100,,> 100 µM,,> 100
Cc1cc2nc3c4ccc(Br)cc4n(CCN(C)C)c3nc2cc1C,1.44 µM,7.65 µM,1.71,3.75,,,1.31,3.01,2,6.24,1.6,3.17,1.1,6.18,1.82,5.19,2.05,6.6 µM,1.47,4.44
NNC(=O)C(O)C(O)C(=O)NN (stereo not drawn),,> 100 µM,,> 100,,> 100 µM,,> 100,,> 100,,,,> 100,,> 100,,> 100 µM,,> 100

# Reference: PubChem BioAssay (NCI)
